According to US6455495B1, “Methods and compositions for delivery of therapeutic agents to bone tissue employing conjugates of negatively charged peptide oligomers with therapeutic agents” (The Salk Institute for Biological Studies, priority 1997, dated 2002):

Legend:
[1] = R. Fujisawa et al. 1996, cited from earlier work
dihydrofolate reductase = conditions: 1 nmole peptide adsorbed on 1 mg hydroxyapatite; 0.52 nmole DHFR, pH 6.4, shaken 45 minutes; SDS gel, Coumassie Blue
Description: The supernatant was removed by centrifugation and the hydroxyapatite was washed with 100 μl of water. Dihydrofolate reductase (0.52 nmole) in 200 μl of buffer containing 0.1 M ammonium sulfate, 0.01 M potassium phosphate, at pH 6.4 and 5% glycerol was added to the hydroxyapatite and shaken for 45 minutes. The hydroxyapatite was separated from the supernatant, washed with 100 μl of water and then eluted twice with 20 μl of 0.02 M K4P2O7. […] The supernatant, the washes and the pyrophosphate eluate were analyzed on a 6% arylamide SDS gel using Coumassie Blue to visualize dihydrofolate reductase.

streptavidin = streptavidin (Streptomyces avidinii, UniProt P22629); test: Recruitment of 125I-labeled streptavidin to hydroxyapatite; format: binding; conditions: 1 nmole peptide on 1 mg hydroxyapatite; 0.1 nmole 125I-streptavidin, 1 M KCl, 0.01 M phosphate pH 6.5, 45 minutes
Description: The supernatant was removed by centrifugation, and the conjugate treated hydroxyapatite washed several times with 200 μl of H2O. The amounts of radioactivity found in the supernatant, wash and conjugate treated hydroxyapatite were then measured. In control experiments, biotin-glu10 was replaced by glu10. When a peptide bound to the hydroxyapatite was ligated to biotin about 70% of the streptavidin was recruited to the hydroxyapatite and 25-30% remained in the supernatant. In the control experiment, no more than 5% of the streptavidin was bound to the hydroxyapatite.

Chain of streptavidin (P22629 25-183): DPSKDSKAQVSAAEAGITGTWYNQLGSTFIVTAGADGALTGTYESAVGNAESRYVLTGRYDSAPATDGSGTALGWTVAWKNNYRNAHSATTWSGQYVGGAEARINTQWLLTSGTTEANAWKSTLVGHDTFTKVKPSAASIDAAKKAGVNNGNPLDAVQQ

Row | Substance | adsorption onto hydroxyapatite [1] | dihydrofolate reductase found in the pyrophosphate eluate (dihydrofolate reductase) | streptavidin recruited (bound) to the hydroxyapatite (streptavidin) | effect on mineralization of hydroxyapatite ([1]; in the presence of calcium and phosphate)
1 | Aspartic acid hexamer [Asp6] | significantly adsorb |  |  | 
2 | Glutamic acid decapeptide [glu10] |  | only a small amount | no more than 5% | 
3 | glutamic acid hexamer [Glu6] | significantly adsorb |  |  | affect the mineralization
